Measured values: paper PMC4506562 (Chemmedchem, 2014)
pIC50: −log10 of the molar value.

Biological target: T1, hsolAC (human soluble adenylate cyclase) (Homo sapiens, UniProt Q96PN6)
T1 sequence (Q96PN6 1-469): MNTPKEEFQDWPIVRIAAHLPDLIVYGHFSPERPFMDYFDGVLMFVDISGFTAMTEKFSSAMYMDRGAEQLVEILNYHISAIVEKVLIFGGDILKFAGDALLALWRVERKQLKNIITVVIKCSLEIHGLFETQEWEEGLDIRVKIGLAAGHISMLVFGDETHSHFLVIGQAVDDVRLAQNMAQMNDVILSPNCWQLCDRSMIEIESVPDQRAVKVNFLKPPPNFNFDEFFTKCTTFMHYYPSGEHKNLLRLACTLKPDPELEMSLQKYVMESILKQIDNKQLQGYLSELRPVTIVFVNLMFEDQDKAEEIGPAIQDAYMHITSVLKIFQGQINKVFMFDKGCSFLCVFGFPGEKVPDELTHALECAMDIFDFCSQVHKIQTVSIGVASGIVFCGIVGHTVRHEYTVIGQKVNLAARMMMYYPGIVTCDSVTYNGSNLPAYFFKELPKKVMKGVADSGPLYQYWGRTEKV
Experiment: Bridge-It cAMP fluorescence assay
Format: biochemical

Cc1n[nH]cc1-c1ccc(F)cc1 [compound 1, 4-(4-Fluorophenyl)-3-methyl-1H-pyrazole]
pIC50: < 3.00
